Experimental data taken from ChEMBL document CHEMBL1201861, “Genomics of Drug Sensitity in Cancer screening data, Wellcome Trust Sanger Institute”.

Experiments:
Assay in all cases: cells
[1] = tested on: CAL-62; format: functional, cell-based, Homo sapiens;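 note: growth inhibition of CAL-62 cells, read out with a cell viability assay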
Description: SANGER: Inhibition of human CAL-62 cell growth in a cell viability assay.

[2] = tested on: NCI-H720; format: functional, cell-based, Homo sapiens;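 note: growth inhibition of human NCI-H720 cells determined by a cell viability assay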
Description: SANGER: Inhibition of human NCI-H720 cell growth in a cell viability assay.

[3] = tested on: UMUC3; format: functional, cell-based, Homo sapiens;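 note: growth inhibition of human UM-UC-3 cells, read out with a cell viability assay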
Description: SANGER: Inhibition of human UM-UC-3 cell growth in a cell viability assay.

[4] = tested on: NCI-H2342; format: functional, cell-based, Homo sapiens;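 note: growth inhibition of the cancer cell line, determined with a cell viability assay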
Description: SANGER: Inhibition of human NCI-H2342 cell growth in a cell viability assay.

[5] = tested on: ME-180; format: functional, cell-based, Homo sapiens;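 note: cell viability assay measuring growth inhibition of ME-180 cells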
Description: SANGER: Inhibition of human ME-180 cell growth in a cell viability assay.

[6] = tested on: A2780; format: functional, cell-based, Homo sapiens;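 note: growth inhibition of A2780 cells, read out with a cell viability assay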
Description: SANGER: Inhibition of human A2780 cell growth in a cell viability assay.

[7] = tested on: OVCAR-8; format: functional, cell-based, Homo sapiens;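 note: growth inhibition of human OVCAR-8 cells, read out by a cell viability assay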
Description: SANGER: Inhibition of human OVCAR-8 cell growth in a cell viability assay.

[8] = tested on: NCI-H1581; format: functional, cell-based, Homo sapiens;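 note: cell growth inhibition read out by a viability assay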
Description: SANGER: Inhibition of human NCI-H1581 cell growth in a cell viability assay.

[9] = tested on: LS-411N; format: functional, cell-based, Homo sapiens
[10] = tested on: MPP-89; format: functional, cell-based, Homo sapiens;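 note: growth inhibition of human MPP-89 cells, read out with a cell viability assay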
Description: SANGER: Inhibition of human MPP-89 cell growth in a cell viability assay.

[11] = tested on: LXF-289 cell line; format: functional, cell-based, Homo sapiens
Description: SANGER: Inhibition of human LXF-289 cell growth in a cell viability assay.

[12] = tested on: OE19; format: functional, cell-based, Homo sapiens;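 note: growth inhibition of OE19 cells, measured through a cell viability read-out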
Description: SANGER: Inhibition of human OE19 cell growth in a cell viability assay.

[13] = tested on: NCI-H226; format: functional, cell-based, Homo sapiens;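 note: cell viability read-out used to gauge growth inhibition of the cells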
Description: SANGER: Inhibition of human NCI-H226 cell growth in a cell viability assay.

[14] = tested on: MC116; format: functional, cell-based, Homo sapiens;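 note: growth inhibition of MC116 cells, read out with a cell viability assay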
Description: SANGER: Inhibition of human MC116 cell growth in a cell viability assay.

[15] = tested on: KU812 cell line; format: functional, cell-based, Homo sapiens;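 note: growth inhibition of KU812 cells, read out with a cell viability assay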
Description: SANGER: Inhibition of human KU812 cell growth in a cell viability assay.

[16] = tested on: SJRH30; format: functional, cell-based, Homo sapiens;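 note: growth inhibition of human SJRH30 cells, read out with a cell viability assay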
Description: SANGER: Inhibition of human SJRH30 cell growth in a cell viability assay.

[17] = tested on: MZ2-MEL; format: functional, cell-based, Homo sapiens;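 note: growth inhibition of MZ2-MEL cells read out with a cell viability assay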
Description: SANGER: Inhibition of human MZ2-MEL cell growth in a cell viability assay.

[18] = tested on: HuO9; format: functional, cell-based, Homo sapiens;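 note: growth inhibition of HuO9 cells, read out with a cell viability assay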
Description: SANGER: Inhibition of human HuO9 cell growth in a cell viability assay.

[19] = tested on: Calu-3; format: functional, cell-based, Homo sapiens;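 note: growth inhibition of human Calu-3 cells, determined with a cell viability assay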
Description: SANGER: Inhibition of human Calu-3 cell growth in a cell viability assay.

[20] = tested on: PANC-03-27; format: functional, cell-based, Homo sapiens
Description: SANGER: Inhibition of human PANC-03-27 cell growth in a cell viability assay.

[21] = tested on: CWR22R; format: functional, cell-based, Homo sapiens;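 note: growth inhibition of 22Rv1 cells, read out with a cell viability assay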
Description: SANGER: Inhibition of human 22RV1 cell growth in a cell viability assay.

[22] = tested on: HT-1376; format: functional, cell-based, Homo sapiens
Description: SANGER: Inhibition of human HT-1376 cell growth in a cell viability assay.

[23] = tested on: HCC1569; format: functional, cell-based, Homo sapiens;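 note: growth inhibition of human HCC1569 cells, read out with a cell viability assay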
Description: SANGER: Inhibition of human HCC1569 cell growth in a cell viability assay.

[24] = tested on: KOSC-2; format: functional, cell-based, Homo sapiens;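 note: growth inhibition of KOSC-2 cells, read out by a cell viability assay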
Description: SANGER: Inhibition of human KOSC-2 cell growth in a cell viability assay.

[25] = tested on: A-375; format: functional, cell-based, Homo sapiens;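 note: growth inhibition of A375 cells, read out with a cell viability assay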
Description: SANGER: Inhibition of human A375 cell growth in a cell viability assay.

[26] = tested on: SK-MEL3; format: functional, cell-based, Homo sapiens, SK-MEL-3;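 note: growth inhibition of human SK-MEL-3 cells, read out with a cell viability assay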
Description: SANGER: Inhibition of human SK-MEL-3 cell growth in a cell viability assay.

[27] = tested on: MHH-ES-1; format: functional, cell-based, Homo sapiens;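 note: cell growth inhibition measured by a cell viability assay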
Description: SANGER: Inhibition of human MHH-ES-1 cell growth in a cell viability assay.

[28] = tested on: VMRC-RCZ; format: functional, cell-based, Homo sapiens;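 note: growth inhibition measured with a cell viability assay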
Description: SANGER: Inhibition of human VMRC-RCZ cell growth in a cell viability assay.

[29] = tested on: NCI-H2087; format: functional, cell-based, Homo sapiens;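 note: growth inhibition determined with a cell viability readout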
Description: SANGER: Inhibition of human NCI-H2087 cell growth in a cell viability assay.

[30] = tested on: D-542MG; format: functional, cell-based, Homo sapiens
Description: SANGER: Inhibition of human D-542MG cell growth in a cell viability assay.

[31] = tested on: SK-MEL-24; format: functional, cell-based, Homo sapiens;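 note: growth inhibition read out by a cell viability assay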
Description: SANGER: Inhibition of human SK-MEL-24 cell growth in a cell viability assay.

[32] = tested on: DBTRG-05MG; format: functional, cell-based, Homo sapiens;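 note: cell viability assay measuring growth inhibition of human DBTRG-05MG cells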
Description: SANGER: Inhibition of human DBTRG-05MG cell growth in a cell viability assay.

[33] = tested on: MSTO-211H; format: functional, cell-based, Homo sapiens
Description: SANGER: Inhibition of human MSTO-211H cell growth in a cell viability assay.

[34] = tested on: Detroit 562; format: functional, cell-based, Homo sapiens;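 note: growth inhibition of human Detroit 562 cells, read out by a cell viability assay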
Description: SANGER: Inhibition of human Detroit562 cell growth in a cell viability assay.

[35] = tested on: SK-N-DZ; format: functional, cell-based, Homo sapiens;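 note: growth inhibition of the cancer cell line, read out through a viability assay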
Description: SANGER: Inhibition of human SK-N-DZ cell growth in a cell viability assay.

[36] = tested on: LNCaP-Clone-FGC; format: functional, cell-based, Homo sapiens
Description: SANGER: Inhibition of human LNCaP-Clone-FGC cell growth in a cell viability assay.

[37] = tested on: OS-RC-2; format: functional, cell-based, Homo sapiens;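 note: growth inhibition of human OS-RC-2 cells, measured by a cell viability assay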
Description: SANGER: Inhibition of human OS-RC-2 cell growth in a cell viability assay.

[38] = tested on: 639-V; format: functional, cell-based, Homo sapiens;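 note: growth inhibition of 639-V cells, read out with a cell viability assay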
Description: SANGER: Inhibition of human 639-V cell growth in a cell viability assay.

[39] = tested on: HT-3; format: functional, cell-based, Homo sapiens;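 note: growth inhibition measured with a cell viability readout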
Description: SANGER: Inhibition of human HT-3 cell growth in a cell viability assay.

[40] = tested on: HOS; format: functional, cell-based, Homo sapiens;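 note: growth inhibition of human HOS cells, read out with a cell viability assay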
Description: SANGER: Inhibition of human HOS cell growth in a cell viability assay.

[41] = tested on: DMS-273; format: functional, cell-based, Homo sapiens
Description: SANGER: Inhibition of human DMS-273 cell growth in a cell viability assay.

[42] = tested on: HCE-4; format: functional, cell-based, Homo sapiens;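 note: cell viability assay measuring inhibition of growth in the human HCE-4 cell line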
Description: SANGER: Inhibition of human HCE-4 cell growth in a cell viability assay.

[43] = tested on: HSC-2; format: functional, cell-based, Homo sapiens;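 note: growth inhibition of human HSC-2 cells, read out by a cell viability assay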
Description: SANGER: Inhibition of human HSC-2 cell growth in a cell viability assay.

## Nc1cccc2c1CN(C1CCC(=O)NC1=O)C2=O (centres undefined) [LENALIDOMIDE]
[1]; Homo sapiens, CAL-62
  IC50: > 5 µM
[2]; Homo sapiens, NCI-H720
  IC50: > 5 µM
[3]; Homo sapiens, UMUC3
  IC50: > 5 µM
[4]; Homo sapiens, NCI-H2342
  IC50: > 5 µM
[5]; Homo sapiens, ME-180
  IC50: > 5 µM
[6]; Homo sapiens, A2780
  IC50: > 5 µM
[7]; Homo sapiens, OVCAR-8
  IC50: > 5 µM
[8]; Homo sapiens, NCI-H1581
  IC50: > 5 µM
[9]; Homo sapiens, LS-411N
  IC50: > 5 µM
[10]; Homo sapiens, MPP-89
  IC50: > 5 µM
[11]; Homo sapiens, LXF-289
  IC50: > 5 µM
[12]; Homo sapiens, OE19
  IC50: > 5 µM
[13]; Homo sapiens, NCI-H226
  IC50: > 5 µM
[14]; Homo sapiens, MC116
  IC50: > 5 µM
[15]; Homo sapiens, KU812
  IC50: > 5 µM
[16]; Homo sapiens, SJRH30
  IC50: > 5 µM
[17]; Homo sapiens, MZ2-MEL
  IC50: > 5 µM
[18]; Homo sapiens, HuO9
  IC50: > 5 µM
[19]; Homo sapiens, Calu-3
  IC50: > 5 µM
[20]; Homo sapiens, PANC-03-27
  IC50: > 5 µM
[21]; Homo sapiens, 22Rv1
  IC50: > 5 µM
[22]; Homo sapiens, HT-1376
  IC50: > 5 µM
[23]; Homo sapiens, HCC1569
  IC50: > 5 µM
[24]; Homo sapiens, KOSC-2
  IC50: > 5 µM
[25]; Homo sapiens, A-375
  IC50: > 5 µM
[26]; Homo sapiens, SK-MEL3
  IC50: > 5 µM
[27]; Homo sapiens, MHH-ES-1
  IC50: > 5 µM
[28]; Homo sapiens, VMRC-RCZ
  IC50: > 5 µM
[29]; Homo sapiens, NCI-H2087
  IC50: > 5 µM
[30]; Homo sapiens, D-542MG
  IC50: > 5 µM
[31]; Homo sapiens, SK-MEL-24
  IC50: > 5 µM
[32]; Homo sapiens, DBTRG-05MG
  IC50: > 5 µM
[33]; Homo sapiens, MSTO-211H
  IC50: > 5 µM
[34]; Homo sapiens, Detroit 562
  IC50: > 5 µM
[35]; Homo sapiens, SK-N-DZ
  IC50: > 5 µM
[36]; Homo sapiens, LNCaP-Clone-FGC
  IC50: > 5 µM
[37]; Homo sapiens, OS-RC-2
  IC50: > 5 µM
[38]; Homo sapiens, 639-V
  IC50: > 5 µM
[39]; Homo sapiens, HT-3
  IC50: > 5 µM
[40]; Homo sapiens, HOS
  IC50: > 5 µM
[41]; Homo sapiens, DMS-273
  IC50: > 5 µM
[42]; Homo sapiens, HCE-4
  IC50: > 5 µM
[43]; Homo sapiens, HSC-2
  IC50: > 5 µM

## CISPLATIN
[1]; cal-62
  IC50: 301 µM
[2]; nci-h720
  IC50: 136 µM
[3]; umuc3
  IC50: 3.93 µM
[4]; nci-h2342
  IC50: 53.8 µM
[5]; me-180
  IC50: 55.2 µM
[6]; a2780
  IC50: 6.39 µM
[7]; ovcar-8
  IC50: 19.9 µM
[8]; nci-h1581
  IC50: 12.2 µM
[9]; ls-411n
  IC50: 66.4 µM
[10]; mpp-89
  IC50: 16.2 µM
[11]; lxf-289
  IC50: 52.7 µM
[12]; oe19
  IC50: 709 µM
[13]; nci-h226
  IC50: 41.5 µM
[14]; mc116
  IC50: 86.9 µM
[15]; ku812
  IC50: 49 µM
[16]; sjrh30
  IC50: 98.3 µM
[17]; mz2-mel
  IC50: 13.4 µM
[18]; huo9
  IC50: 38.7 µM
[19]; calu-3
  IC50: 582 µM
[20]; panc-03-27
  IC50: 38.3 µM
[21]; cwr22r
  IC50: 25.3 µM
[22]; ht-1376
  IC50: 98.9 µM
[23]; hcc1569
  IC50: 455 µM
[24]; kosc-2
  IC50: 2.91 µM
[25]; a-375
  IC50: 535 µM
[26]; sk-mel-3
  IC50: 684 µM
[27]; mhh-es-1
  IC50: 55 µM
[28]; vmrc-rcz
  IC50: 298 µM
[29]; nci-h2087
  IC50: 14.5 µM
[30]; d-542mg
  IC50: 3.26 µM
[31]; sk-mel-24
  IC50: 43.7 µM
[32]; dbtrg-05mg
  IC50: 15.9 µM
[33]; msto-211h
  IC50: 57.1 µM
[34]; detroit 562
  IC50: 38.3 µM
[35]; sk-n-dz
  IC50: 26.8 µM
[36]; lncap-clone-fgc
  IC50: 515 µM
[37]; os-rc-2
  IC50: 3.87 µM
[38]; 639-v
  IC50: 5.89 µM
[39]; ht-3
  IC50: 5.04 µM
[40]; hos
  IC50: 2.56 µM
[41]; dms-273
  IC50: 9.7 µM
[42]; hce-4
  IC50: 9.36 µM
[43]; hsc-2
  IC50: 129 µM

## Cc1cn(-c2cc(NC(=O)c3ccc(C)c(Nc4nccc(-c5cccnc5)n4)c3)cc(C(F)(F)F)c2)cn1 [NILOTINIB]
[1]; Homo sapiens, CAL-62
  IC50: > 2 µM
[2]; Homo sapiens, NCI-H720
  IC50: > 2 µM
[3]; Homo sapiens, UMUC3
  IC50: > 2 µM
[4]; Homo sapiens, NCI-H2342
  IC50: > 2 µM
[5]; Homo sapiens, ME-180
  IC50: > 2 µM
[6]; Homo sapiens, A2780
  IC50: > 2 µM
[7]; Homo sapiens, OVCAR-8
  IC50: > 2 µM
[8]; Homo sapiens, NCI-H1581
  IC50: > 2 µM
[9]; Homo sapiens, LS-411N
  IC50: > 2 µM
[10]; Homo sapiens, MPP-89
  IC50: > 2 µM
[11]; Homo sapiens, LXF-289
  IC50: > 2 µM
[12]; Homo sapiens, OE19
  IC50: > 2 µM
[13]; Homo sapiens, NCI-H226
  IC50: > 2 µM
[14]; Homo sapiens, MC116
  IC50: > 2 µM
[15]; Homo sapiens, KU812
  IC50: 0.00248 µM
[16]; Homo sapiens, SJRH30
  IC50: > 2 µM
[17]; Homo sapiens, MZ2-MEL
  IC50: > 2 µM
[18]; Homo sapiens, HuO9
  IC50: > 2 µM
[19]; Homo sapiens, Calu-3
  IC50: > 2 µM
[20]; Homo sapiens, PANC-03-27
  IC50: > 2 µM
[21]; Homo sapiens, 22Rv1
  IC50: > 2 µM
[22]; Homo sapiens, HT-1376
  IC50: > 2 µM
[23]; Homo sapiens, HCC1569
  IC50: > 2 µM
[24]; Homo sapiens, KOSC-2
  IC50: > 2 µM
[25]; Homo sapiens, A-375
  IC50: > 2 µM
[26]; Homo sapiens, SK-MEL3
  IC50: > 2 µM
[27]; Homo sapiens, MHH-ES-1
  IC50: > 2 µM
[28]; Homo sapiens, VMRC-RCZ
  IC50: > 2 µM
[29]; Homo sapiens, NCI-H2087
  IC50: > 2 µM
[30]; Homo sapiens, D-542MG
  IC50: > 2 µM
[31]; Homo sapiens, SK-MEL-24
  IC50: > 2 µM
[32]; Homo sapiens, DBTRG-05MG
  IC50: > 2 µM
[33]; Homo sapiens, MSTO-211H
  IC50: > 2 µM
[34]; Homo sapiens, Detroit 562
  IC50: > 2 µM
[35]; Homo sapiens, SK-N-DZ
  IC50: > 2 µM
[36]; Homo sapiens, LNCaP-Clone-FGC
  IC50: > 2 µM
[37]; Homo sapiens, OS-RC-2
  IC50: > 2 µM
[38]; Homo sapiens, 639-V
  IC50: > 2 µM
[39]; Homo sapiens, HT-3
  IC50: > 2 µM
[40]; Homo sapiens, HOS
  IC50: > 2 µM
[41]; Homo sapiens, DMS-273
  IC50: > 2 µM
[42]; Homo sapiens, HCE-4
  IC50: > 2 µM
[43]; Homo sapiens, HSC-2
  IC50: > 2 µM
